Assay [1] has as its system P(40), P(80), S(80) cell fractions of Methylosinus sp. (CRL-15, NRRL B-11,202). As to the kind of experiment: Oxidation of n-alkanes and n-alkenes by cell fractions. Type of assay: biochemical. The following applies: for % Inhibition, Propylene-Epoxidizing Activity / % Inhibition, Methane-Hydroxylating Activity / Methane-Oxidizing Activity in presence of metal / Propylene-Oxidizing Activity in presence of metal: P(40) fraction; for % Inhibition, Propylene-Epoxidizing Activity / % Inhibition, Methane-Hydroxylating Activity: inhibitor 10^-3 M; for % Inhibition, Propylene-Epoxidizing Activity: uninhibited rate 4.1; for % Inhibition, Methane-Hydroxylating Activity: uninhibited rate 4.5; for Rate of Product Formation (substrate to 1,2-epoxide or alcohol): P(40) particulate fraction, 30° C.; for Methane-Oxidizing Activity in presence of metal / Propylene-Oxidizing Activity in presence of metal: metal 10^-3 M; for Methane-Oxidizing Activity in presence of metal: control 4.0; for Propylene-Oxidizing Activity in presence of metal: control […]. The method, then:
Cells were washed twice with 25 mM potassium phosphate buffer, pH 7.0 containing 5 mM MgCl2. Cells were suspended in the same buffer. The cell suspensions at 4° C. were disintegrated by a single passage through a French Pressure cell (15,000 lb./in.^2) and centrifuged at 5000×g. for 15 min. to remove unbroken bacteria. The supernatant solution (crude extract) was then centrifuged at 40,000×g. for 30 min., yielding particulate P(40) and soluble S(40) fractions. The S(40) fraction was subsequently centrifuged at 80,000×g. for 60 min., yielding particulate P(80) and soluble S(80) fractions. The particulate fractions [P(40) and P(80)] were suspended in 25 mM potassium phosphate buffer, pH 7.0, containing 5 mM MgCl2 and homogenized at 4° C.
[…] The reaction mixtures contained in 1.0 ml: 150 mM potassium phosphate buffer, pH 7.0 containing 5 mM MgCl2, 0.6 ml; […] NADH, and cellular fraction.
Reaction mixtures were contained in 10 ml vials at 4° C. Vials were sealed with rubber caps. The gaseous phase in the vials was removed using vacuum and then was replaced with a gas mixture of methane or propylene and oxygen at a 1:1, v/v ratio. Oxidation of other gaseous n-alkanes and n-alkenes was examined as described above. For liquid substrates, 10 μl of substrate was used directly.
The products of epoxidation of n-alkenes and hydroxylation of n-alkanes were assayed by flame ionization gas chromatography using a stainless steel column (12'×1/8") packed with 10% Carbowax 20 M on 80/100 Chromosorb W and Porapak Q column. The column temperature was maintained isothermally at 120° C. The carrier gas flow rate was 30 ml/min. of helium. The various products were identified by retention time comparisons and co-chromatography with authentic standards.
Specific activities were expressed as μ moles of products formed per hour per mg. protein. Concentrations of protein in various fractions were determined by the method of Lowry et al., J. Biol. Chem. 193: 265-275 (1951).

The subject of assay [2] is Methylococcus capsulatus (CRL M1, NRRL B-11,219). As to the kind of experiment: Oxidation/epoxidation by washed cell suspensions. In kind it is cell-based. The following applies: methane-grown washed cells.
The test system of assay [3] is Methylococcus capsulatus strain MC. As to the kind of experiment: Stimulation of propylene epoxidation in cell suspensions. Type of assay: cell-based. Particulars: Propylene + 5 mM stimulator compound. The method, then:
(§1) The pH of the nutrient medium was adjusted to 7.0 by the addition of acid or base and 50 ml aliquots of the nutrient medium was charged into a plurality of 300 ml shake flasks. The shake flasks were inoculated with an inoculating loop of cells from an agar plate containing homogeneous colonies of the microorganisms on the plate (the purity of the isolates were confirmed by microscopic examination). The isolates had been maintained on agar plates under an atmosphere of methane and air having a 1:1 v/v gas ratio which had been transferred every two weeks. The gaseous phase of the inoculated flasks was then replaced with a gas mixture comprised of methane and air having a ratio of 1:1 on a v/v basis. The inoculated flasks were sealed air tight and were incubated on a rotary shaker of orbital radius 2.5 cm at 250 rpm and at 30° C. for two days until the turbidity in the medium had developed.
(§2) The cells were harvested by centrifugation at 10,000 ×g at 4° C. for 30 minutes. The cell pellet was washed twice with a 0.15 M phosphate buffer at a pH of 7.0 (containing 0.002 M MgCl2). The washed cells were then suspended in a 0.15 M phosphate buffer at pH 7.0.
(§3) A 0.5 ml aliquot of each washed cell suspension (2 mg cells) was put into 10 ml vials at 4° C. which were sealed with a rubber cap. The gaseous phase of the vials was removed with vacuum and then was replaced with a gas mixture of alkene and oxygen at a 1:1 v/v ratio. It was then incubated at 30° C. on a rotary shaker at 300 rpm. Samples of product (3 μl) were withdrawn periodically with a microsyringe and the products were analyzed by gas chromatography (ionization flame detector column).
(§4) Several experiments were carried out using a plurality of compounds capable of generating the necessary reducing power (NADH2 or NADPH2) required for the epoxidation of alkenes or dienes. These experiments were carried out using cell suspensions of methane grown methylotrophs using the procedure as described in Example 1 except that a stimulator compound was added to the reaction medium.

Assay [4] relates to whole cell suspensions of methylotrophs (C1 -utilizing microbes). Particulars: 2-butanol added; biocatalyst from C1 -C4 gaseous alkane-grown microbes.
The subject of assay [5] is Methylobacter capsulatus Y (NRRL B-11,201). Briefly: Methane hydroxylation and propylene epoxidation by washed cell suspensions. In kind it is cell-based. The following applies: Propylene + 5 mM stimulator compound. Here is the method:
as §1, §2
(§5) A 0.5 ml aliquot of each washed cell suspension (2 mg cells) was put into 10 ml vials at 4° C. which were sealed with a rubber cap. […] It was then incubated at 30° C. on a rotary shaker at 300 rpm. Samples of product (3 μl) were withdrawn periodically with a microsyringe and the products were analyzed by gas chromatography (ionization flame detector column).
Several experiments were carried out using a plurality of compounds capable of generating the necessary reducing power (NADH2 or NADPH2) required for the epoxidation of alkenes or dienes. […]

Assay [6] has as its system Methylobacterium organophilum (CRL 26, NRRL B-11,222). As to the kind of experiment: Epoxidation/hydroxylation by washed cell suspensions. Type of assay: cell-based. Particulars: Propylene + 5 mM stimulator compound. The method, then: as §1, §2, §3, §4
The test system of assay [7] is Methylosinus trichosporium OB3b (NRRL B-11,196). Briefly: Methane hydroxylation and alkene epoxidation by washed cell suspensions. In kind it is cell-based. Particulars: methane-grown washed cells, 30° C. Here is the method:
as §1, with “The shake flasks were inoculated with an inoculating loop of cells from an agar plate containing homogeneous colonies of the microorganisms on the plate (the purity of the isolates were confirmed by microscopic examination).” left out
as §2
[…] The gaseous phase of the vials was removed with vacuum and then was replaced with a gas mixture of alkene and oxygen at a 1:1 v/v ratio. It was then incubated at 30° C. on a rotary shaker at 300 rpm. Samples of product (3 μl) were withdrawn periodically with a microsyringe and the products were analyzed by gas chromatography (ionization flame detector column).

The test system of assay [8] is Methylosinus sporium 5 (NRRL B-11,197). The assay is described as above. In kind it is cell-based. The following applies: methane-grown washed cells, 30° C. The method, then: as §1, with “The shake flasks were inoculated with an inoculating loop of cells from an agar plate containing homogeneous colonies of the microorganisms on the plate (the purity of the isolates were confirmed by microscopic examination).” left out
as §2, §5

Structures can show the parent of a compound that is named as a salt.

With `c1cnc2c(c1)ccc1cccnc12` [1,10-phenanthroline, reference compound], in assay [1], the “% Inhibition, Propylene-Epoxidizing Activity” value is reported as 93% and the “% Inhibition, Methane-Hydroxylating Activity” value turned out to be 90%.

With `CC(C)(C)C` [2,2-dimethylpropane], the “Reaction Rate, 2,2-dimethylpropane to 2,2-dimethylpropanol” value in assay [2] turned out to be 0.085 μmoles/hr/mg biomass.

For the compound `CCC(C)O` (centres unmarked) [2-Butanol], the figures for the “Rate of Product Formation (Propylene Oxide)” value (“Rate … (Propylene Oxide)” below) in assay [3] and in assay [5] were 21 nmoles/hr/mg protein and 26 nmoles/hr/mg protein, respectively. Further, the “Effect on epoxidation of gaseous n-alkenes” value in assay [4] is recorded as “somehow inhibited”.

Consider `Oc1cccc2cccnc12` [8-Hydroxyquinoline, reference compound], for which, in assay [1], the “% Inhibition, Propylene-Epoxidizing Activity” value is on record as 75% and the “% Inhibition, Methane-Hydroxylating Activity” value came out at 80%.

`CC=O` [Acetaldehyde]: the “Rate … (Propylene Oxide)” value in assay [3] came out at 154 nmoles/hr/mg protein; in assay [6], 13 nmoles/hr/mg protein.

With `C=CC=C` [Butadiene], the “Conversion rate, butadiene to 1,2-epoxybutene” value worked out at 2.6 μmole/hr/mg protein in assay [7] and 1.5 μmole/hr/mg protein in assay [8]. The “Rate of Product Formation (substrate to 1,2-epoxide or alcohol)” value (from here on “Rate … (substrate to 1,2-epoxide or alcohol)”) in assay [1] is given as 0.63 μmoles/hr/mg of protein.

In the case of `C=CCC` [Butene-1], the results for the “Conversion rate, butene-1 to 1,2-epoxybutane” value in assay [7] and in assay [8] were 0.45 μmole/hr/mg protein and 0.8 μmole/hr/mg protein, respectively. Besides, in assay [1], the “Rate … (substrate to 1,2-epoxide or alcohol)” value is reported as 2.18 μmoles/hr/mg of protein.

As to `O=S(=O)([O-])[O-].[Cu+2]` [Cupric Sulfate], in assay [1], the “Methane-Oxidizing Activity in presence of metal” value (shortened to “Methane-Oxidizing Activity”) was determined as 7.1 μmoles/hr/mg protein and the “Propylene-Oxidizing Activity in presence of metal” value (“Propylene-Oxidizing Activity” below) came to 9.0 μmoles/hr/mg protein.

In the case of `[Cl][Cu]` [Cuprous Chloride], in assay [1], the “Methane-Oxidizing Activity” value was 7.2 μmoles/hr/mg protein and the “Propylene-Oxidizing Activity” value worked out at 9.2 μmoles/hr/mg protein.

Take `COC` [Dimethylether]: the “Rate … (Propylene Oxide)” value in assay [6] is listed as 50 nmoles/hr/mg protein.

Consider `CC` [Ethane], for which, in assay [1], the “Rate … (substrate to 1,2-epoxide or alcohol)” value is listed as 3.2 μmoles/hr/mg of protein.

Regarding `CCO` [Ethanol], the “Rate … (Propylene Oxide)” value in assay [3] was 462 nmoles/hr/mg protein; in assay [5], 370 nmoles/hr/mg protein; in assay [6], 124 nmoles/hr/mg protein.

As to `[Cl][Fe]([Cl])[Cl]` [Ferric Chloride], in assay [1], the “Methane-Oxidizing Activity” value came out at 4.8 μmoles/hr/mg protein and the “Propylene-Oxidizing Activity” value was 5.8 μmoles/hr/mg protein.

For the compound `C=CCCCC` [Hexene-1], the “Conversion rate, hexene-1 to 1,2-epoxyhexane” value in assay [7] is 0 μmole/hr/mg protein; in assay [7] (listed as hexene-1), “did not produce any detectable epoxide”; in assay [8], 0 μmole/hr/mg protein; in assay [8] (listed as hexene-1), “did not produce any detectable epoxide”.

For `CC(C)C` [Isobutane], in assay [2], the “Reaction Rate, isobutane to isobutyraldehyde” value was 0.072 μmoles/hr/mg biomass and the “Reaction Rate, isobutane to tertiary butanol” value is listed as 0.051 μmoles/hr/mg biomass.

Regarding `C=CC(=C)C` [Isoprene], the “Reaction Rate, isoprene to 1,2-epoxyisoprene” value in assay [2] was 0.064 μmoles/hr/mg biomass.

On to `CC(C)O` [Isopropanol], for which the “Rate … (Propylene Oxide)” value is recorded as 37 nmoles/hr/mg protein in assay [3], 13 nmoles/hr/mg protein in assay [5] and 20 nmoles/hr/mg protein in assay [6].

As to `COC(C)=O` [Methyl Acetate], the figures for the “Rate … (Propylene Oxide)” value in assay [3] and in assay [6] were 21 nmoles/hr/mg protein and 5.0 nmoles/hr/mg protein, respectively.

`COC=O` [Methyl Formate]: the “Rate … (Propylene Oxide)” value is 390 nmoles/hr/mg protein in assay [3], 99 nmoles/hr/mg protein in assay [5] and 61 nmoles/hr/mg protein in assay [6].

In the case of `C=CCCC` [Pentane-1, pentene-1], in assay [7], the “Conversion rate, Pentane-1 to 1,2-epoxypentane” value came out at 0 μmole/hr/mg protein and the “Conversion rate, pentene-1 to 1,2-epoxypentane” value was “did not produce any detectable epoxide”. Besides, in assay [8], the “Conversion rate, Pentane-1 to 1,2-epoxypentane” value was 0 μmole/hr/mg protein and the “Conversion rate, pentene-1 to 1,2-epoxypentane” value is given as “did not produce any detectable epoxide”. In assay [1], the “Rate … (substrate to 1,2-epoxide or alcohol)” value is 0 μmoles/hr/mg of protein.

As to `CCCO` [Propanol], the “Rate … (Propylene Oxide)” value in assay [3] is 243 nmoles/hr/mg protein; in assay [6], 66 nmoles/hr/mg protein.

In the case of `CCC=O` [Propionaldehyde], the “Rate … (Propylene Oxide)” value came to 40 nmoles/hr/mg protein in assay [3] and 54 nmoles/hr/mg protein in assay [5].

Turning to `NNC(N)=S` [Thiosemicarbazide, reference compound], in assay [1], the “% Inhibition, Propylene-Epoxidizing Activity” value is reported as 97% and the “% Inhibition, Methane-Hydroxylating Activity” value came out at 100%.

Regarding `NC(N)=S` [Thiourea, reference compound], in assay [1], the “% Inhibition, Propylene-Epoxidizing Activity” value is listed as 98% and the “% Inhibition, Methane-Hydroxylating Activity” value was 98%.

In the case of `c1ccc(-c2ccccn2)nc1` [α,α-Bipyridyl, reference compound], in assay [1], the “% Inhibition, Propylene-Epoxidizing Activity” value came to 98% and the “% Inhibition, Methane-Hydroxylating Activity” value turned out to be 99%.

On to Ferrous Sulfate, for which, in assay [1], the “Methane-Oxidizing Activity” value is 4.8 μmoles/hr/mg protein and the “Propylene-Oxidizing Activity” value turned out to be 5.9 μmoles/hr/mg protein.

Values taken from patent US4368267A, “Epoxidation of lower α-olefins” (priority 1980, dated 1983).
